According to paper PMC9486808 (ACS Chemical Biology, 2022):
“Also recorded” adds a separate entry of the source. Like-named read-outs stand apart in the source and are kept apart here. Positions of bridges follow the written chain, without caps; N, C: chain ends. Non-standard residues stand in square brackets, D forms with d. Residues, ends and D or L forms follow the SMILES beside them.

Legend:
H1 ectodomain [1] = target: T1, H1 ectodomain (Influenza A virus, UniProt C3W5S1); test: biochemical; type: binding, Influenza A virus A/California/04/2009 (H1N1)
H1 HA = H1 HA (Influenza A virus, UniProt C3W5S1); type: binding, Influenza A virus A/California/04/2009 (H1N1)
H1 ectodomain [2] = target: T1, H1 ectodomain; test: biochemical; type: binding, Influenza A virus A/California/04/2009 (H1N1); conditions: read-out: Kd1
H1stem = type: binding, Influenza A virus A/Kentucky/UR06-0258/2007 (H1N1); conditions: read-out: Kd1
H3 ectodomain = type: binding, Influenza A virus A/Fujian/411/2002 (H3N2); conditions: for Kd: read-out: Kd1
[3] = tested on: H1N1pdm09 (A/Netherlands/602/2009); type: cell-based, Influenza A virus
[4] = tested on: H1N1pr8 (A/PR8/8/34/Mount Sinai); type: cell-based, Influenza A virus
[5] = tested on: H5N1 virus carrying H5 HA of A/duck/Hunan/795/2002 in the H1N1pr8 genetic background; type: cell-based, Influenza A virus
[6] = tested on: H3N1 virus carrying H3 HA of A/Bilthoven/1761/76 (H3N2) in the H1N1pr8 background; type: cell-based, Influenza A virus
[7] = target: H1 ectodomain of A/California/04/2009 (H1N1) (Influenza A virus, UniProt C3W5S1); type: binding, Influenza A virus A/California/04/2009 (H1N1)
H1N1pdm09 = tested on: H1N1pdm09; parameters: species or system Influenza A virus
[8] = target: full-length H1 of A/California/04/2009 (H1N1) (Influenza A virus, UniProt C3W5S1); type: cell-based, Influenza A virus A/California/04/2009 (H1N1); conditions: pH 5
[9] = tested on: H1N1pdm09 (A/Netherlands/602/2009); conditions: for IC50: 16 h
in vitro = conditions: HeLa R19 cells and MDCKI cells
[10] = tested on: H5N1 virus carrying H5 HA of A/duck/Hunan/795/2002 in the H1N1pr8 genetic background; conditions: 16 h

CC(C)C[C@@H]1NC(=O)[C@H](C(C)C)NC(=O)[C@@H](Cc2ccc(O)cc2)NC(=O)CSC[C@@H](C(=O)NCC(N)=O)NC(=O)[C@H](C(C)C)NC(=O)[C@H](Cc2c[nH]c3ccccc23)NC(=O)[C@H](Cc2c[nH]cn2)NC(=O)[C@H]([C@@H](C)O)NC(=O)[C@H](C)NC(=O)[C@H](CC(C)C)NC(=O)[C@H]([C@@H](C)O)NC(=O)CNC(=O)[C@H](Cc2c[nH]cn2)NC(=O)[C@H](CC(=O)O)NC(=O)[C@H](Cc2c[nH]c3ccccc23)NC(=O)[C@H](CCCNC(=N)N)NC(=O)[C@H](Cc2ccccc2)NC1=O [S5] ({CH2CO}-[dY]VLFRWDHGTLATHWVCG-NH2; thioether N-17)
Kd (H1 ectodomain [1]): ≤ 1 nM | ΔTm (°C), crude peptide (H1 HA): 4.8 °C | ΔTm (°C), purified peptide (H1 HA): 7.8 °C | Kd (H1 ectodomain [2]): 8.6 ± 1.1 nM | Kd (H1stem): 11.3 ± 2.5 nM | Peptide binding by SPR (in words) (H3 ectodomain): no binding was observed | Kd (H3 ectodomain): > 50 nM | Inhibition of infection (infected cells relative to untreated control) [3]: strongly inhibited infection | Inhibition of infection (infected cells relative to untreated control) [4]: strongly inhibited infection | Inhibition of infection (infected cells relative to untreated control) [5]: cross-neutralization was observed | Inhibition of infection (infected cells relative to untreated control) [6]: fell short of inhibiting | Binding region in the HA stem (HDX-MS) [7]: aa 369–387 | Interference of the peptide itself with hemagglutination (H1N1pdm09): does not interfere with hemagglutination | Loss of hemagglutination after pH 5 incubation (H1N1pdm09; pH 5): prevented by S5 | Syncytia formation (cell-cell fusion) [8]: greatly reduced; also recorded: inhibits fusion between H1 expressing cells | Inhibition of infection at a single concentration [9]: strong inhibition of infection | Neutralizing activity in the presence of serum proteins [9]: unaffected by the addition of serum proteins | CC50 at 72 h (in vitro): > 5000 nM

CC[C@H](C)[C@@H]1NC(=O)[C@H](CCCCN)NC(=O)[C@H](CO)NC(=O)[C@H](Cc2c[nH]c3ccccc23)NC(=O)[C@H](Cc2ccc(O)cc2)NC(=O)[C@H]([C@@H](C)CC)NC(=O)[C@H](CCCCN)NC(=O)[C@H](CC(C)C)NC(=O)[C@@H](Cc2ccc(O)cc2)NC(=O)CSC[C@@H](C(=O)NCC(N)=O)NC(=O)[C@H](Cc2c[nH]c3ccccc23)NC(=O)[C@H](CCC(=O)O)NC(=O)[C@H](CO)NC(=O)[C@H](C(C)C)NC(=O)[C@H](CC(C)C)NC(=O)CNC(=O)[C@H](Cc2c[nH]cn2)NC1=O [S3] ({CH2CO}-[dY]LKIYWSKIHGLVSEWCG-NH2; thioether N-17)
Kd (H1 ectodomain [1]): ≤ 1 nM | ΔTm (°C), crude peptide (H1 HA): 3.8 °C | ΔTm (°C), purified peptide (H1 HA): 4.2 °C | Kd (H1 ectodomain [2]): 16.8 ± 0.6 nM | Kd (H1stem): 37.2 ± 18.8 nM | Peptide binding by SPR (in words) (H3 ectodomain): no binding was observed | Kd (H3 ectodomain): > 50 nM | Inhibition of infection (infected cells relative to untreated control) [3]: strongly inhibited infection | Inhibition of infection (infected cells relative to untreated control) [4]: strongly inhibited infection | Inhibition of infection (infected cells relative to untreated control) [6]: fell short of inhibiting | Binding region in the HA stem (HDX-MS) [7]: aa 369–387 | Inhibition of infection at a single concentration [9]: strong inhibition of infection | IC50 [9]: 47.5 ± 7.1 nM | IC50 [10]: 17.5 ± 1.7 nM | CC50 at 72 h (in vitro): > 5000 nM

CC(C)[C@@H]1NC(=O)[C@H](Cc2c[nH]c3ccccc23)NC(=O)[C@H](CCCNC(=N)N)NC(=O)[C@H](Cc2ccc(O)cc2)NC(=O)CSC[C@@H](C(=O)NCC(N)=O)NC(=O)[C@H](C(C)C)NC(=O)[C@H](C(C)C)NC(=O)[C@H](Cc2ccccc2)NC(=O)[C@H](Cc2ccc(O)cc2)NC(=O)[C@@H]2CCCN2C(=O)[C@H](CCC(=O)O)NC(=O)[C@H](CO)NC(=O)[C@H](Cc2ccccc2)NC(=O)[C@H](Cc2ccccc2)NC(=O)[C@H](CO)NC(=O)[C@H]([C@@H](C)O)NC(=O)[C@H](Cc2c[nH]c3ccccc23)NC1=O [L4] ({CH2CO}-YRWVWTSFFSEPYFVVCG-NH2; thioether N-17)
Kd (H1 ectodomain [1]): ≤ 1 nM | ΔTm (°C), purified peptide (H1 HA): 3.4 °C | Kd (H1 ectodomain [2]): 20.8 ± 1.4 nM | Kd (H1stem): 2.6 ± 0.1 nM | Peptide binding by SPR (in words) (H3 ectodomain): no binding was observed | Kd (H3 ectodomain): > 50 nM | Inhibition of infection (infected cells relative to untreated control) [3]: strongly inhibited infection | Inhibition of infection (infected cells relative to untreated control) [4]: strongly inhibited infection | Inhibition of infection (infected cells relative to untreated control) [6]: fell short of inhibiting | Binding region in the HA stem (HDX-MS) [7]: aa 369–387 | Inhibition of infection at a single concentration [9]: strong inhibition of infection | IC50 [9]: 104 ± 10.3 nM | IC50 [10]: 234 ± 66 nM | CC50 at 72 h (in vitro): > 5000 nM
